For assay [1], the target named is T1, ULK1 kinase (Homo sapiens, UniProt O75385, E37A/K38A).
T1 construct: (residues 1-283; ID NO: 1); purchased Beryllium
T1 sequence (O75385 1-283 E37A/K38A): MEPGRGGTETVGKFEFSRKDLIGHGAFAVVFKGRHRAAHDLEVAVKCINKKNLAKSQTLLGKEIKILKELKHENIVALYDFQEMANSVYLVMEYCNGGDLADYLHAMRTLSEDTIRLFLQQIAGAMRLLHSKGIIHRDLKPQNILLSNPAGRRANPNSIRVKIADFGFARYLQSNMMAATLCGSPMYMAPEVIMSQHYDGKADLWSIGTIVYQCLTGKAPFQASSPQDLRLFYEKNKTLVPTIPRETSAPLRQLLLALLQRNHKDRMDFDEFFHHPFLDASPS
Kind of assay: Biochemical assay for ULK1 (coupled pyruvate kinase/lactate dehydrogenase assay). Particulars: 1 mM ATP, 0.1 nM ULK1; read-out: ULK1 (inhibition of biochemical activity), IC50. The procedure: Biochemical Assay for ULK1 (SEQ. ID NO: 1)
Activity of ULK1 kinase was determined spectroscopically using a coupled pyruvate kinase/lactate dehydrogenase assay that continuously monitors the ATP hydrolysis-dependent oxidation of NADH (e.g., Schindler et al. Science (2000) 289: 1938-1942). Assays were conducted in 384-well plates (100 μL final volume) using 0.1 nM ULK1 (from Beryllium), 0.075 mM peptide substrate (YANWLAASIYLDGKKK), 1.5 units pyruvate kinase, 2.1 units lactate dehydrogenase, 1 mM phosphoenol pyruvate, 0.28 mM NADH and 1 mM ATP in assay buffer (100 mM Tris, pH 7.5, 15 mM MgCl2, 0.5 mM DTT, 0.004% (w/v) BSA, and 0.004% Triton X-100). Inhibition of ULK1 was measured by adding serial diluted test compound (final assay concentration of 1% DMSO). A decrease in absorption at 340 nm was monitored continuously for 6 h at 30° C. on a multi-mode microplate reader (BioTek). The reaction rate was calculated using the 2-3 h time frame. The reaction rate at each concentration of compound was converted to percent inhibition using controls (i.e., reaction with no test compound and reaction with a known inhibitor) and IC50 values were calculated using software routines in Prism (GraphPad software).

Assay [2] has as its target T2, ULK2 kinase (Homo sapiens, UniProt Q8IYT8).
T2 construct: (residues 1-306 with N-terminal GST and His tag; ID NO: 2); purchased Signal Chem U02-11G
Kind of assay: Biochemical assay for ULK2 (coupled pyruvate kinase/lactate dehydrogenase assay). Particulars: 1 mM ATP, 1 nM ULK2; read-out: ULK2 (inhibition of biochemical activity), IC50. The method, then: Biochemical Assay for ULK2 (SEQ. ID NO: 2)
Activity of ULK2 kinase was determined spectroscopically using a coupled pyruvate kinase/lactate dehydrogenase assay that continuously monitors the ATP hydrolysis-dependent oxidation of NADH (e.g., Schindler et al. Science (2000) 289: 1938-1942). Assays were conducted in 384-well plates (100 μL final volume) using 1 nM ULK2 (Signal Chem U02-11G), 200 μM ULKtide, 1.5 units pyruvate kinase, 2.1 units lactate dehydrogenase, 1 mM phosphoenol pyruvate, 0.28 mM NADH and 1 mM ATP in assay buffer (100 mM Tris, pH 7.5, 15 mM MgCl2, 0.5 mM DTT, 0.1% octyl-glucoside, 0.002% (w/v) BSA, and 0.002% Triton X-100). Inhibition of ULK2 was measured by adding serial diluted test compound (final assay concentration of 1% DMSO). A decrease in absorption at 340 nm was monitored continuously for 6 h at 30° C. on a multi-mode microplate reader (BioTek). The reaction rate was calculated using the 2-3 h time frame. The reaction rate at each concentration of compound was converted to percent inhibition using controls (i.e., reaction with no test compound and reaction with a known inhibitor) and IC50 values were calculated by fitting a four-parameter sigmoidal curve to the data using Prism (GraphPad software).

Bounds are passed on as bounds.

T2 sequence (Q8IYT8 with tags, fused parts or gaps): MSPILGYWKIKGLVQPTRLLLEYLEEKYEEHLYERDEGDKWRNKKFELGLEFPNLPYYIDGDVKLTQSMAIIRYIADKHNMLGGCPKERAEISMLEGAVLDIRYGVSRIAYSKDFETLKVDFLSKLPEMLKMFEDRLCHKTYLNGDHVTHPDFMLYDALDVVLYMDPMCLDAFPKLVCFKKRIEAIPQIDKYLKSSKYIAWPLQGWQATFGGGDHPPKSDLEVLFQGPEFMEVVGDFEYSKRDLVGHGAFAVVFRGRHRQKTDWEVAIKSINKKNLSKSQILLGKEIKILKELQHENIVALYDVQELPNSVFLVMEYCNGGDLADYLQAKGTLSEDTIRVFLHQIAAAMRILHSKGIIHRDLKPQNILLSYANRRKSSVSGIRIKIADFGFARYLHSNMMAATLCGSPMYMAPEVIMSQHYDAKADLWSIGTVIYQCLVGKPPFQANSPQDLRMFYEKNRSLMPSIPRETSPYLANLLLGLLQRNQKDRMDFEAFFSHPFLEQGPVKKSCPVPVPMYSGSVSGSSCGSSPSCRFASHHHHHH

Turning to `CC/C(Nc1cnn(C2CNC2)c1)=C1/C(=O)Nc2ccc(C(=O)NC[C@H]3CCCO3)cc21` [Example 96], the IC50 in assay [1] was not above 10 nM; in assay [2] it was 10 to 100 nM.

For `CC/C(Nc1cnn(C(C)C)c1)=C1/C(=O)Nc2ncc(C(=O)NCC3(F)CC3)cc21` [Example 172], the values for the IC50 in assay [1] and in assay [2] were 10 to 100 nM and 100 to 500 nM, respectively. The like results for `CC/C(Nc1cnn(C(C)C)c1)=C1/C(=O)Nc2ncc(C(=O)NCC(F)(F)F)cc21` [Example 171] were, in that order, 100 to 500 nM and 100 to 500 nM.

In the case of `CC/C(Nc1cnn(C2CCN(C(C)C)CC2)c1)=C1/C(=O)Nc2ccc(C(=O)NCC3COC3)cc21` [Example 18], in assay [1], the IC50 was in the range of 10 to 100 nM. On the same count and under the same terms, then `CC/C(Nc1ccc(N2CCN(C)CC2)cc1)=C1/C(=O)Nc2ccc(C(=O)NOC)cc21` [Example 10], with 100 to 500 nM; and `CC/C(Nc1cnn(C2CCN(C(C)C)CC2)c1)=C1/C(=O)Nc2ccc(C(=O)NOC)cc21` [Example 22], with 10 to 100 nM. As to `CC/C(Nc1cnn(C(C)C)c1)=C1/C(=O)Nc2ccc(C(=O)N[C@@H](C)C(F)(F)F)cc21` [Example 120], the results for the half-inhibitory concentration (IC50) in assay [1] and in assay [2] were 10 to 100 nM and 100 to 500 nM, respectively.

`CC/C(Nc1cnn(C2CCN(C(C)C)CC2)c1)=C1/C(=O)Nc2ccc(C(=O)N(C)OC)cc21` [Example 139]: the IC50 in assay [1] was in the range of 100 to 500 nM. Same read-out and setting: for `CC/C(Nc1cnn(C2CCN(C(C)C)CC2)c1)=C1/C(=O)Nc2ccc(C(=O)NCCc3cnn(C)c3)cc21` [Example 49] the value was 100 to 500 nM.

For the molecule `CC/C(Nc1cnn(C(C)C)c1)=C1/C(=O)Nc2ccc(C(=O)NC3CC3)cc21` [Example 131], the IC50 in assay [1] and in assay [2] was 100 to 500 nM throughout. As for `CC/C(Nc1cnn2c1CCC2)=C1/C(=O)Nc2ccc(C(=O)NCC(F)(F)F)cc21` [Example 121], the IC50 in assay [1] and in assay [2] was more than 500 nM each time.

`CC/C(Nc1cnn(C2CCN(C(C)C)CC2)c1)=C1/C(=O)Nc2ccc(C(=O)NC[C@@H]3CCCO3)cc21` [Example 19]: the half-maximal inhibitory concentration (IC50) in assay [1] and in assay [2] was 10 to 100 nM in each case. Turning to `CC/C(Nc1cnn(C(C)C)c1)=C1/C(=O)Nc2ccc(C(=O)N3CC[C@@H](C(F)(F)F)C3)cc21` [Example 150], the IC50 was 100 to 500 nM in assay [1] and more than 500 nM in assay [2]. For `CC/C(Nc1cnn(C(C)C)c1)=C1/C(=O)Nc2ncc(C(=O)NCC(C)(C)F)cc21` [Example 170] the same measures were 100 to 500 nM and 100 to 500 nM. Take `CC/C(Nc1cnn(C2CCN(C(C)C)CC2)c1)=C1/C(=O)Nc2ccc(C(=O)N3CCCO3)cc21` [Example 12]: the IC50 in assay [1] is 100 to 500 nM. On to `CC/C(Nc1cnn(C(C)C)c1)=C1/C(=O)Nc2ccc(C(=O)NCCN3CCC3)cc21` [Example 162], for which the IC50 in assay [1] and in assay [2] was more than 500 nM throughout.

As for `CC/C(Nc1nc(C)co1)=C1/C(=O)Nc2ccc(C(=O)NCC(F)(F)F)cc21` [Example 143], the IC50 is 100 to 500 nM in assay [1] and more than 500 nM in assay [2]. For `CC/C(Nc1cnn(C2CCN(C(C)C)CC2)c1)=C1/C(=O)Nc2ccc(C(=O)NC3COC3)cc21` [Example 25] the same measures were 100 to 500 nM and more than 500 nM.

`CC/C(Nc1cnn(C2CCN(C(C)C)CC2)c1)=C1/C(=O)Nc2ccc(C(=O)N3CCCC3)cc21` [Example 81]: in assay [1], the IC50 was more than 500 nM. `CC/C(Nc1cn(C)nc1C)=C1/C(=O)Nc2ccc(C(=O)NCC(F)(F)F)cc21` [Example 115]: the IC50 in assay [1] and in assay [2] was more than 500 nM in each case. As for `CC/C(Nc1ncc(C)o1)=C1/C(=O)Nc2ccc(C(=O)NCC(F)(F)F)cc21` [Example 155], the IC50 was in the range of 10 to 100 nM in assay [1] and 100 to 500 nM in assay [2].

Turning to `CC/C(Nc1cnn(C(C)C)c1)=C1/C(=O)Nc2ccc(C(N)=O)cc21` [Example 183], the IC50 in assay [1] and in assay [2] was 10 to 100 nM throughout. For `CC/C(Nc1cnn(C2CCN(C(C)C)CC2)c1)=C1/C(=O)Nc2ccc(C(=O)NC(C)C)cc21` [Example 17], the values for the IC50 in assay [1] and in assay [2] were 10 to 100 nM and 100 to 500 nM, respectively.

Consider `CC/C(Nc1nnc(C)o1)=C1/C(=O)Nc2ccc(C(=O)NCC(C)(C)F)cc21` [Example 146], for which the IC50 in assay [1] and in assay [2] was 100 to 500 nM in each case. `CC/C(Nc1cnn(C(C)C)c1)=C1/C(=O)Nc2ccc(C(=O)NC)cc21` [Example 133]: the IC50 is 100 to 500 nM in assay [1] and more than 500 nM in assay [2].

For the molecule `CC/C(Nc1cnn(C(C)C)c1)=C1/C(=O)Nc2ccc(C(=O)CN(C)C)cc21` [Example 176], the IC50 in assay [1] and in assay [2] was more than 500 nM each time. On to `CC/C(Nc1ccn(C(C)C)n1)=C1/C(=O)Nc2ccc(C(=O)NCC(F)(F)F)cc21` [Example 99], for which the results for the IC50 in assay [1] and in assay [2] were 100 to 500 nM and more than 500 nM, respectively. For the molecule `CC/C(Nc1cnn(C2CCN(C(C)C)CC2)c1)=C1/C(=O)Nc2ccc(C(=O)NC)cc21` [Example 13], the IC50 in assay [1] lay in the range of 100 to 500 nM. `CC/C(Nc1ccc(C(C)C)nc1)=C1/C(=O)Nc2ccc(C(=O)NCC(F)(F)F)cc21` [Example 111]: the IC50 in assay [1] and in assay [2] was 100 to 500 nM in each case. Turning to `CC/C(Nc1cnn(C(C)C)c1)=C1/C(=O)Nc2ccc(C(=O)N3CC[C@H](C(F)(F)F)C3)cc21` [Example 151], the results for the IC50 in assay [1] and in assay [2] were 10 to 100 nM and 100 to 500 nM, respectively. The like results for `CC/C(Nc1cc(C(C)C)ccn1)=C1/C(=O)Nc2ccc(C(=O)NCC(F)(F)F)cc21` [Example 97] were, in that order, 100 to 500 nM and 10 to 100 nM. For `CC/C(Nc1cnn(C(C)C)c1)=C1/C(=O)Nc2ccc(C(=O)N(C)C[C@H]3CCCO3)cc21` [Example 129] the same measures were 10 to 100 nM and 100 to 500 nM.

Regarding `CC/C(Nc1cnn(C(C)C)c1)=C1/C(=O)Nc2ccc(C(=O)NC(C)C)cc21` [Example 132], the IC50 was 100 to 500 nM in assay [1] and more than 500 nM in assay [2].

As for `CC/C(Nc1cncc(C(C)C)c1)=C1/C(=O)Nc2ccc(C(=O)NCC(F)(F)F)cc21` [Example 182], the IC50 in assay [1] and in assay [2] was more than 500 nM each time. For the molecule `COCCNC(=O)c1ccc2c(c1)/C(=C(\C)Nc1cnn(C3CCN(C(C)C)CC3)c1)C(=O)N2` [Example 23], in assay [1], the IC50 was in the range of 10 to 100 nM. As for `CC/C(Nc1cnn(C(C)C)c1)=C1/C(=O)Nc2cc(Cl)c(C(=O)NCC(F)(F)F)cc21` [Example 141], the IC50 in assay [1] and in assay [2] was 100 to 500 nM each time. With `CC/C(Nc1cnn(C2CCN(C(C)C)CC2)c1)=C1/C(=O)Nc2ccc(C(=O)NCc3cnn(C)c3)cc21` [Example 50], the IC50 in assay [1] fell in the range of 100 to 500 nM.

With `CC/C(Nc1cnn(C2CCN(C(C)C)CC2)c1)=C1/C(=O)Nc2ccc(C(=O)NCC(=O)N3CCCC3)cc21` [Example 57], the IC50 in assay [1] was 100 to 500 nM.

With `CC/C(Nc1cnn(C2CCN(C(C)C)CC2)c1)=C1/C(=O)Nc2ccc(C(=O)N3CCOCC3)cc21` [Example 20], the IC50 in assay [1] was more than 500 nM. Same read-out and setting: then `C/C(Nc1cnn(C2CCN(C(C)C)CC2)c1)=C1/C(=O)Nc2ccc(C(=O)NC[C@H]3CCCO3)cc21` [Example 45], with not above 10 nM; and `CCNC(=O)c1ccc2c(c1)/C(=C(\CC)Nc1cnn(C3CCN(C(C)C)CC3)c1)C(=O)N2` [Example 14], with 100 to 500 nM; and `CC/C(Nc1cnn(C2CCN(C(C)C)CC2)c1)=C1/C(=O)Nc2ccc(C(=O)NCCC(=O)N(C)C)cc21` [Example 59], with 100 to 500 nM.

For the origin of these results see patent US20240150368A1, “ULK INHIBITORS AND METHODS OF USE THEREOF” (Deciphera Pharmaceuticals, LLC, priority 2022, published 2024).
